Among the data in patent US9249129B2, “Morpholino substituted urea derivatives as mTOR inhibitors” (CELLZOME LIMITED, priority 2010, dated 2016) are IC50 values, retold here.

The target in one test is T1, mTOR (Homo sapiens, UniProt P42345).
T1 construct: endogenous in cells; host or cells: Jurkat cells (ATCC TIB-152, clone E6-1), lysate
As to the kind of experiment: mTOR kinobeads assay (dot blot detection). It counts as binding. The note with it: Table 4, read-out: Inhibition values (IC50) mTOR. The procedure, abridged: (§1)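 Jurkat cell lysate (5 mg/ml protein) was incubated with test compounds and kinobeads (immobilized phenylthiazole and phenylmorpholin-chromen ligands) for 2 h in the cold with shaking. Bead-bound kinase was SDS-eluted and quantified by antibody dot blot with infrared detection. IC50 values came from dose-response curves.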

The next test concerns the target T2, PI3K delta (PI3Kd) (Homo sapiens, UniProt O00329).
T2 construct: endogenous in cells; host or cells: Jurkat cells (ATCC TIB-152, clone E6-1), lysate
As to the kind of experiment: kinobeads assay, PI3K delta (dot blot detection). Type of test: binding. The note with it: Table 4, read-out: Inhibition values (IC50) PI3Kd. In outline:
as §1

The target in test [1] is T3, DNA-dependent protein kinase (DNA-PK) (Homo sapiens, UniProt P78527).
T3 construct: endogenous in cells; host or cells: Jurkat cells (ATCC TIB-152, clone E6-1), lysate
As to the kind of experiment: kinobeads assay, DNA-PK (dot blot detection). Type of test: binding. The note with it: Table 4, read-out: Inhibition values (IC50) DNAPK. In outline: as §1

The target in a further test is T4, PI3Kα (Homo sapiens, UniProt P42336).
T4 construct: endogenous in cells; host or cells: Jurkat cells (ATCC TIB-152) lysate, the only lysate described
T4 sequence (P42336 whole entry): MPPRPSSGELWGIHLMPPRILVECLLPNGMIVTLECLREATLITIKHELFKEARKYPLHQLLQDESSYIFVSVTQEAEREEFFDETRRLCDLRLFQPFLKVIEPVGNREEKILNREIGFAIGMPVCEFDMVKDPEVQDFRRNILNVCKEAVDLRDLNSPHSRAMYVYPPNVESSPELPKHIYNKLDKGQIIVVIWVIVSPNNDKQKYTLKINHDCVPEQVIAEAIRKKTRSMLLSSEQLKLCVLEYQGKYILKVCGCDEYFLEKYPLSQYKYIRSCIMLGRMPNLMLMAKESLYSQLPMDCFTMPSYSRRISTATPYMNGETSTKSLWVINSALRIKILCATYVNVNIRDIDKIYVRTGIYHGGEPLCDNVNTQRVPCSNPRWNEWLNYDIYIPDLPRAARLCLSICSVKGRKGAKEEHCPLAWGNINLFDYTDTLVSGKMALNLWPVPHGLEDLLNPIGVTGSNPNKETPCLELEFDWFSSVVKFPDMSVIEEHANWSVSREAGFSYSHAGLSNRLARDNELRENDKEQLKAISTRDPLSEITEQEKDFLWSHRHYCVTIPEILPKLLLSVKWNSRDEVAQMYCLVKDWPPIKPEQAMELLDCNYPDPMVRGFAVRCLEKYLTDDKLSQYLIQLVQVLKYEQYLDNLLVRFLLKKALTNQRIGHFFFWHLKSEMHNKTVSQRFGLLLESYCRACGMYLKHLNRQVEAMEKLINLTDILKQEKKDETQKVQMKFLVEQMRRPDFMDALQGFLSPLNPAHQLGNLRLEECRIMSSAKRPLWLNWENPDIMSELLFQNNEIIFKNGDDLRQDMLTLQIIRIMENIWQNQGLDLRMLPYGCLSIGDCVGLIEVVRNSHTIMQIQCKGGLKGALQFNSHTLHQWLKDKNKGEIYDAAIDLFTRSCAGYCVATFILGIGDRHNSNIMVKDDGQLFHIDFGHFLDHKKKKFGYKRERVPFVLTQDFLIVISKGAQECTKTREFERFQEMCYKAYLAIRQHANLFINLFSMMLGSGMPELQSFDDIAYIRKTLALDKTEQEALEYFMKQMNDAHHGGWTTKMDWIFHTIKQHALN
T4 sequence (P27986 whole entry partner): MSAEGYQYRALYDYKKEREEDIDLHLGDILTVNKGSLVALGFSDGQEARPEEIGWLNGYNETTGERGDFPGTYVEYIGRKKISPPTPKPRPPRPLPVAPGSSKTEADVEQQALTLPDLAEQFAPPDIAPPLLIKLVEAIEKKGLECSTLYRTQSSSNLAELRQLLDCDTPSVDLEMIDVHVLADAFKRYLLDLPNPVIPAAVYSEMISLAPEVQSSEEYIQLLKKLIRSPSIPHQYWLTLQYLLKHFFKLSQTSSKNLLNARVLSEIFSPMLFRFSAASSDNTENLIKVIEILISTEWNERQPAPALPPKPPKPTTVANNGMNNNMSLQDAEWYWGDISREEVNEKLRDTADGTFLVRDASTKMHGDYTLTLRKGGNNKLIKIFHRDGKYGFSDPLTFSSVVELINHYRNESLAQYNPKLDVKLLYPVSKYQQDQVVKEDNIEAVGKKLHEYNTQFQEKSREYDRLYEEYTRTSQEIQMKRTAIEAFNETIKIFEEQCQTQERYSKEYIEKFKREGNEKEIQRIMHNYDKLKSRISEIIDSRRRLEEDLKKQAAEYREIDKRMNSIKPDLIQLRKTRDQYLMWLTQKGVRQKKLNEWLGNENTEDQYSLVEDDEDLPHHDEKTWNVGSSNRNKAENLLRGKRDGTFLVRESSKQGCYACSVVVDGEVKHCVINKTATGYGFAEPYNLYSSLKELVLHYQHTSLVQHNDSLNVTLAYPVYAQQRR
As to the kind of experiment: kinobeads assay, PI3K alpha (dot blot detection). The note with it: Table 4, read-out: Inhibition values (IC50) PI3Ka. It counts as binding.

The target in the next test is T5, PI3Kβ (Homo sapiens, UniProt P42338).
T5 construct: endogenous in cells; host or cells: Jurkat cells (ATCC TIB-152) lysate, the only lysate described
T5 sequence (P42338 whole entry): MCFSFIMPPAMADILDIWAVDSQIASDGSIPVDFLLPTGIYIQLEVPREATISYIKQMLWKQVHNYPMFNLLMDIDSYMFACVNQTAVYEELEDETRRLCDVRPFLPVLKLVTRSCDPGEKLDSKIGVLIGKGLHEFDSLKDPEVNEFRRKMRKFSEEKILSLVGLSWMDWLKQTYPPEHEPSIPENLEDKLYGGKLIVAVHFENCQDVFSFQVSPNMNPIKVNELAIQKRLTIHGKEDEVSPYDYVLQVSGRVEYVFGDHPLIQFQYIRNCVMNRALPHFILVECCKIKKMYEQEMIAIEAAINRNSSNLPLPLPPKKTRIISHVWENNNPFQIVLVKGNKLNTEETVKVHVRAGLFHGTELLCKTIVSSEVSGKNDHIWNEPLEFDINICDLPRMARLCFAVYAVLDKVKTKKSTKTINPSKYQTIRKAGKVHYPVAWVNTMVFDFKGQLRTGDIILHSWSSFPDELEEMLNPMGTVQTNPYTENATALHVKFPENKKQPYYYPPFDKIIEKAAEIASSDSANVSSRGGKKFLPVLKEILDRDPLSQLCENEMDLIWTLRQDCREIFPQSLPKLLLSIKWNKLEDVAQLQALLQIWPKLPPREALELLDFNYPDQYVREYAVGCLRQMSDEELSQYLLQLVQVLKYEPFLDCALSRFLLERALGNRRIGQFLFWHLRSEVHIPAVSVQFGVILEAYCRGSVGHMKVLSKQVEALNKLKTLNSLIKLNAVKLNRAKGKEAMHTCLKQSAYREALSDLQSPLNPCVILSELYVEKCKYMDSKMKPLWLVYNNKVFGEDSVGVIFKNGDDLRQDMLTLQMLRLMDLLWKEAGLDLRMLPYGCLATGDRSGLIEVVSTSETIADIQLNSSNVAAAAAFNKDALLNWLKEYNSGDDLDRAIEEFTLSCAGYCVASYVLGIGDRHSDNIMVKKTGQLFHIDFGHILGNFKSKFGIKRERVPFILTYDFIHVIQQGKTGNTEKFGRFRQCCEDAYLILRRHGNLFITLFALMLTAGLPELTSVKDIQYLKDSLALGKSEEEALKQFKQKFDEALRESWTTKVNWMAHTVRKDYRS
T5 sequence (P27986 whole entry partner): as the sequence (P27986 whole entry partner) above
As to the kind of experiment: kinobeads assay, PI3K beta (dot blot detection). It counts as binding. The settings on record: Table 4, read-out: Inhibition values (IC50) PI3Kb.

In another test the target is T6, PI3Kγ (Homo sapiens, UniProt P48736).
T6 construct: endogenous in cells; host or cells: Jurkat cells (ATCC TIB-152) lysate, the only lysate described
T6 sequence (P48736 whole entry): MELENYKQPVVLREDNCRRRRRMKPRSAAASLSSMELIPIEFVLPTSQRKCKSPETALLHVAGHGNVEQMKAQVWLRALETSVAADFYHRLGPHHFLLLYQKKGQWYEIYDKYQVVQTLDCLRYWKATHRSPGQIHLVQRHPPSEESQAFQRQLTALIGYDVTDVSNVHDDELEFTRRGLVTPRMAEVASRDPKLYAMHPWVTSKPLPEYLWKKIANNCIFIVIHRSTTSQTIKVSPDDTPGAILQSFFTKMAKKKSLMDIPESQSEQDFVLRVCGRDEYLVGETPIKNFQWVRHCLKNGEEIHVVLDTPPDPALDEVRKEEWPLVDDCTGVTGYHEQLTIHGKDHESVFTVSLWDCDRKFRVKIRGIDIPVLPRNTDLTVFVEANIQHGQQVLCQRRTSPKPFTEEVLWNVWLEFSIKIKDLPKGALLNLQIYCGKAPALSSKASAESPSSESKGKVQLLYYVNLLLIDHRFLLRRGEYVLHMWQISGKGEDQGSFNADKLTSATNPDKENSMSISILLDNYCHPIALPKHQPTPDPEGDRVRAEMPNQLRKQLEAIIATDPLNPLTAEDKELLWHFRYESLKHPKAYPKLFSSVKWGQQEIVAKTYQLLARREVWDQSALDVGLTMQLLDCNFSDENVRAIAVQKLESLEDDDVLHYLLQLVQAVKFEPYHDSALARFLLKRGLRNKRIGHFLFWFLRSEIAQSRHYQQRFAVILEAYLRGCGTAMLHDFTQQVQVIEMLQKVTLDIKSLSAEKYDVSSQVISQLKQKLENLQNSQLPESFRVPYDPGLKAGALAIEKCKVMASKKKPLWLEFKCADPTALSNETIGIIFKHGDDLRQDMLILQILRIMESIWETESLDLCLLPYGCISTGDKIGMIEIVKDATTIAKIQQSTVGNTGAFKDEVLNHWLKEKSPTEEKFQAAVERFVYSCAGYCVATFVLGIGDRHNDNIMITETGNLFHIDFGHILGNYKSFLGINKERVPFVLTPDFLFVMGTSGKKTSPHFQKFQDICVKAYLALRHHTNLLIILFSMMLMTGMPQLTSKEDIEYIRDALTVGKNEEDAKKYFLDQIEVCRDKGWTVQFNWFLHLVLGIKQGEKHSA
Nature of the test: kinobeads assay, PI3K gamma (dot blot detection). Type of test: binding. The settings on record: Table 4, read-out: Inhibition values (IC50) PI3Kg.

Test [2] has as its system S6RP serine-240/244 phosphorylation in HEK293T/17 cells. As to the kind of experiment: In vitro phospho-S6 cellular assay (pS6RP S240/244). Type of test: cell-based. The settings on record: Homo sapiens, Table 6, 2 hours, S6RP Ser240/244, read-out: pS6 (phospho-S6 cell assay data, activity level). In outline:
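HEK293T/17 cells in DMEM with 2% FCS treated with 8 compound concentrations (0.1% DMSO) for 2 h at 37 °C, then lysed. Phospho-S6RP Ser240/244 or phospho-Akt Ser473 quantified by MesoScale sandwich immunoassay with Sulfo-Tag detection; IC50 from variable-slope sigmoidal fit.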

In test [3] the test system is Akt serine-473 phosphorylation in HEK293T/17 cells. Nature of the test: In vitro phospho-Akt cellular assay (pAkt S473). Type of test: cell-based. The note with it: Homo sapiens, Table 6, 2 hours, Akt Ser473, read-out: pAKT (Phospho-Akt cell assay data, activity level). The text has this:
In Vitro Phospho-S6 and Phospho-Akt Cellular Assay
Activation of mTOR signaling results in phosphorylation of several downstream targets. In cells, mTOR exists in two different protein complexes. The mTOR Complex-1 (mTORC1) phosphorylates and activates S6 Kinase 1 (S6K1) and S6 Kinase 2 (S6K2) (also known as p70S6K) which then phosphorylate S6 Ribosomal Protein (S6RP) (also known as RPS6). S6RP is phosphorylated on serine 235, serine 236, serine 240 and serine 244 by both pS6K1 and pS6K2. The mTOR Complex-2 (mTORC2) phosphorylates AKT on serine 473 which activates the AKT signaling pathway.
The assay measures a test compound's inhibition of S6RP serine-240/244 phosphorylation and inhibition of Akt serine-473 phosphorylation in human embryonic kidney derived HEK293T/17 cells (ATCC CRL-11268).
The HEK293T/17 cell line is maintained in DMEM media (Invitrogen catalogue number 41965-039) supplemented with 10% FCS at 37° C. in a 5% CO2 humidified incubator.
Cells are seeded in 96-well plates at 40,000 cells/well (pS6RP S240/244 assay) or 80,000 cells/well (pAkt 5473 assay) in 90 μl growth media (DMEM, 2% FCS). Plates are incubated for 1 hour in a humidified incubator to allow the cells to adhere. Cells are treated with 8 concentrations of test compounds or DMSO alone for controls (final DMSO concentration 0.1%) and incubated at 37° C. for 2 hours. Then 20 μl of 5× concentrated lysis buffer (750 mM NaCl, 100 mM Tris pH7.4, 5 mM EDTA, 5 mM EGTA, 5% Triton X-100) is added, plates are sealed and incubated for 15 minutes at 4° C. with gentle shaking. After cell lysis, 25 μl cell lysate is transferred to a MesoScale plate coated with an antibody to pS6RP Ser240/244 (MesoScale Discovery K150DGD-3) or an antibody to pAkt Ser 473 (MesoScale Discovery K151DGD-3). Plates have been blocked before by incubation with 150 μl MesoScale Discovery Blocking Solution-A for 1 hour at room temperature followed by washing with 150 μl 1× Tris wash buffer per well. After the transfer of the cell lysate to the MSD plate, the pS6RP (or pAkt) protein is captured on the coated antibody by incubation at room temperature for 1 hour with gentle shaking. After the capture step the plate is washed three times with 150 μl of 1× Tris wash buffer per well. Then 25 μl detection antibody conjugated with a Sulfo-Tag is added and incubated for 1 hour at room temperature with gentle shaking. Subsequently the antibody solution is removed and the plate is washed 3 times with 150 μl 1× Tris wash buffer per well and 150 μl Read buffer is added. The plates are analysed on a MSD 2400 Plate Reader (MesoScale Discovery). Data analysis is performed using nonlinear regression for a sigmoidal dose-response with a variable slope.

T2 sequence (O00329 whole entry): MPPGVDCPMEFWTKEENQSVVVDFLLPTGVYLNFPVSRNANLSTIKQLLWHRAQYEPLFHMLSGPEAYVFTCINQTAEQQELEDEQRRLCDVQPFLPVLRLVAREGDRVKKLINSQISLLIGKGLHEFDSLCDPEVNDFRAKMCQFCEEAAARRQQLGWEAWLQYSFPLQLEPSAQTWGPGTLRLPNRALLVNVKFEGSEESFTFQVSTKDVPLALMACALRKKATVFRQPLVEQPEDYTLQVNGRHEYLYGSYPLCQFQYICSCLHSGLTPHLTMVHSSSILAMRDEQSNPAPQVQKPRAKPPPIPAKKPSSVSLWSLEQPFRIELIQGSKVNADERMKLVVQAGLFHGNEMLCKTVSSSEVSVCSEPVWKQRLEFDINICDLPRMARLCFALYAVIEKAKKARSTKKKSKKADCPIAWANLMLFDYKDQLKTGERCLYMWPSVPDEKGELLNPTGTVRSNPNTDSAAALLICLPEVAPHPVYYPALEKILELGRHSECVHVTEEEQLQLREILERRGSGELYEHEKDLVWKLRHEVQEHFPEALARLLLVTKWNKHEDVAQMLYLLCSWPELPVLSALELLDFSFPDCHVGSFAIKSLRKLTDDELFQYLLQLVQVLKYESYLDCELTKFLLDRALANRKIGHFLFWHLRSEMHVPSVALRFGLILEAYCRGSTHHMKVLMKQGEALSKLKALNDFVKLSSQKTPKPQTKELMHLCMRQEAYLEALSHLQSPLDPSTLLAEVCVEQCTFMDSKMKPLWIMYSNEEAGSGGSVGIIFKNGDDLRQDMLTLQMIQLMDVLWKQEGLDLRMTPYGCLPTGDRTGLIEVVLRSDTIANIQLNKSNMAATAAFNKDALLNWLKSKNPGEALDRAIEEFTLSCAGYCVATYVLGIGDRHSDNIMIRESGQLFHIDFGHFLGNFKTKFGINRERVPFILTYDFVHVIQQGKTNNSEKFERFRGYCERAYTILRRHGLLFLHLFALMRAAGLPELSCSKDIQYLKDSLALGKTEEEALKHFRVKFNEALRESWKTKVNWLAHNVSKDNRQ
T2 sequence (P27986 whole entry partner): as the sequence (P27986 whole entry partner) above

Consider `C[C@@H](CO)NC(=O)Nc1ccc(-c2cc(-c3cc(F)ccc3S(C)(=O)=O)nc(N3CCOC[C@@H]3C)n2)cc1` [Example 74, 1-(4-(6-(5-fluoro-2-(methylsulfonyl)phenyl)-2-((S)-3-methylmorpholino)pyrimidin-4-yl)phenyl)-3-((S)-1-hydroxypropan-2-yl)urea], for which the IC50 at mTOR was 0.1 to 1 µM; at PI3K delta (PI3Kd), no less than 10 µM; in test [1], no less than 10 µM; at PI3Kα, no less than 10 µM; at PI3Kβ, no less than 10 µM; at PI3Kγ, no less than 10 µM. The IC50 in test [2] and in test [3] was less than 0.1 µM each time.

On to `C[C@H]1COCCN1c1cc(-c2cc(F)ccc2S(C)(=O)=O)nc(-c2ccc(NC(=O)NCCO)cc2)n1` [Example 78, (S)-1-(4-(4-(5-fluoro-2-(methylsulfonyl)phenyl)-6-(3-methylmorpholino)pyrimidin-2-yl)phenyl)-3-(2-hydroxyethyl)urea], for which the IC50 on mTOR was less than 0.1 µM; at PI3K delta (PI3Kd), no less than 10 µM; in test [1], no less than 10 µM; on PI3Kα, no less than 10 µM; on PI3Kβ, no less than 10 µM; on PI3Kγ, no less than 10 µM. In addition, the IC50 in test [2] and in test [3] was less than 0.1 µM in each case.

With `C[C@H]1COCCN1c1cc(-c2cc(F)ccc2S(C)(=O)=O)nc(-c2ccc(NC(=O)NC3CC3)cc2)n1` [Example 77, (S)-1-cyclopropyl-3-(4-(4-(5-fluoro-2-(methylsulfonyl)phenyl)-6-(3-methylmorpholino)pyrimidin-2-yl)phenyl)urea], the IC50 at mTOR was 0.1 to 1 µM; at PI3K delta (PI3Kd) it was no less than 10 µM; in test [1], no less than 10 µM; on PI3Kα, no less than 10 µM; on PI3Kβ it was no less than 10 µM; on PI3Kγ, no less than 10 µM. The IC50 in test [2] and in test [3] was less than 0.1 µM each time.
